Laboratory results taken from patent US20250084040A1, “SUBSTITUTED HETEROCYCLES AS c-MYC TARGETING AGENTS” (Northwestern University, priority 2018, published 2025).

Tested on: NCI 60 cell panel
Experiment: NCI 60 Cell One-Dose Screen
Assay type: cell-based, human
Conditions: 1.00E−5 Molar
Description: General Description. As of early 2007 all compounds submitted to the NCI 60 Cell screen are tested initially at a single high dose (10^-5 M) in the full NCI 60 cell panel. Only compounds which satisfy pre-determined threshold inhibition criteria in a minimum number of cell lines will progress to the full 5-dose assay. The threshold inhibition criteria for progression to the 5-dose screen was selected to efficiently capture compounds with anti-proliferative activity based on careful analysis of historical DTP screening data. The threshold criteria may be updated as additional data becomes available.
Interpretation of One-Dose Data. The One-dose data will be reported as a mean graph of the percent growth of treated cells and will be similar in appearance to mean graphs from the 5-dose assay. The number reported for the One-dose assay is growth relative to the no-drug control, and relative to the time zero number of cells. This allows detection of both growth inhibition (values between 0 and 100) and lethality (values less than 0). This is the same as for the 5-dose assay, described below. For example, a value of 100 means no growth inhibition. A value of 40 would mean 60% growth inhibition. A value of 0 means no net growth over the course of the experiment. A value of −40 would mean 40% lethality. A value of −100 means all cells are dead. Information from the One-dose mean graph is available for COMPARE analysis.
The human tumor cell lines of the cancer screening panel are grown in RPMI 1640 medium containing 5% fetal bovine serum and 2 mM L-glutamine. For a typical screening experiment, cells are inoculated into 96 well microtiter plates in 100 μL at plating densities ranging from 5,000 to 40,000 cells/well depending on the doubling time of individual cell lines. After cell inoculation, the microtiter plates are incubated at […], 5% CO2, 95% air and 100% relative humidity for 24 h prior to addition of experimental drugs.
After 24 h, two plates of each cell line are fixed in situ with TCA, to represent a measurement of the cell population for each cell line at the time of drug addition (Tz). Experimental drugs are solubilized in dimethyl sulfoxide at 400-fold the desired final maximum test concentration and stored frozen prior to use. At the time of drug addition, an aliquot of frozen concentrate is thawed and diluted to twice the desired final maximum test concentration with complete medium containing 50 µg/ml gentamicin. Additional four, 10-fold or ½ log serial dilutions are made to provide a total of five drug concentrations plus control. Aliquots of 100 μl of these different drug dilutions are added to the appropriate microtiter wells already containing 100 μl of medium, resulting in the required final drug concentrations.
Following drug addition, the plates are incubated for an additional 48 h at 37° C., 5% CO2, 95% air, and 100% relative humidity. For adherent cells, the assay is terminated by the addition of cold TCA. Cells are fixed in situ by the gentle addition of 50 μl of cold 50% (w/v) TCA (final concentration, 10% TCA) and incubated for 60 minutes at 4° C. The supernatant is discarded, and the plates are washed five times with tap water and air dried. Sulforhodamine B (SRB) solution (100 μl) at 0.4% (w/v) in 1% acetic acid is added to each well, and plates are incubated for 10 minutes at room temperature. After staining, unbound dye is removed by washing five times with 1% acetic acid and the plates are air dried. Bound stain is subsequently solubilized with 10 mM trizma base, and the absorbance is read on an automated plate reader at a wavelength of 515 nm. For suspension cells, the methodology is the same except that the assay is terminated by fixing settled cells at the bottom of the wells by gently adding 50 μl of 80% TCA (final concentration, 16% TCA). […]

## Cn1nc(C(F)(F)F)cc1-c1ccc(OCc2ccc(Cl)cc2)c(-c2cc(C(F)(F)F)cc(C(F)(F)F)c2)c1O [NSC: D-795899/1]
786-0 (Renal Cancer)
  Growth Percent: 2.41%
A498 (Renal Cancer)
  Growth Percent: −26.88%
A549/ATCC (Non-Small Cell Lung Cancer)
  Growth Percent: 10.52%
ACHN (Renal Cancer)
  Growth Percent: 7.22%
BT-549 (Breast Cancer)
  Growth Percent: 2.72%
CCRF-CEM (Leukemia)
  Growth Percent: 6.82%
COLO 205 (Colon Cancer)
  Growth Percent: −90.71%
DU-145 (Prostate Cancer)
  Growth Percent: 20.58%
Delta of the mean graph
  Growth Percent, Delta: 89.50%
EKVX (Non-Small Cell Lung Cancer)
  Growth Percent: 7.70%
HCC-2998 (Colon Cancer)
  Growth Percent: 5.78%
HCT-15 (Colon Cancer)
  Growth Percent: 7.50%
HCT-116 (Colon Cancer)
  Growth Percent: 3.65%
HL-60(TB) (Leukemia)
  Growth Percent: −39.89%
HOP-62 (Non-Small Cell Lung Cancer)
  Growth Percent: −9.87%
HOP-92 (Non-Small Cell Lung Cancer)
  Growth Percent: −20.08%
HS 578T (Breast Cancer)
  Growth Percent: 4.39%
HT29 (Colon Cancer)
  Growth Percent: 3.77%
IGROV1 (Ovarian Cancer)
  Growth Percent: 31.40%
K-562 (Leukemia)
  Growth Percent: 1.63%
KM12 (Colon Cancer)
  Growth Percent: 5.04%
LOX IMVI (Melanoma)
  Growth Percent: 6.23%
M14 (Melanoma)
  Growth Percent: 6.30%
MALME-3M (Melanoma)
  Growth Percent: −15.91%
MCF7 (Breast Cancer)
  Growth Percent: 3.01%
MDA-MB-231/ATCC (Breast Cancer)
  Growth Percent: −31.51%
MDA-MB-435 (Melanoma)
  Growth Percent: 11.38%
MDA-MB-468 (Breast Cancer)
  Growth Percent: -5.00%
MOLT-4 (Leukemia)
  Growth Percent: −11.7%
Mean over the cell panel
  Growth Percent, Mean: -1.21%
NCI-H23 (Non-Small Cell Lung Cancer)
  Growth Percent: 0.56%
NCI-H226 (Non-Small Cell Lung Cancer)
  Growth Percent: 13.90%
NCI-H322M (Non-Small Cell Lung Cancer)
  Growth Percent: 5.67%
NCI-H460 (Non-Small Cell Lung Cancer)
  Growth Percent: −10.44%
NCI-H522 (Non-Small Cell Lung Cancer)
  Growth Percent: −9.19%
NCI/ADR-RES (Ovarian Cancer)
  Growth Percent: 1.98%
OVCAR-3 (Ovarian Cancer)
  Growth Percent: 7.02%
OVCAR-4 (Ovarian Cancer)
  Growth Percent: 20.71%
OVCAR-5 (Ovarian Cancer)
  Growth Percent: 29.10%
OVCAR-8 (Ovarian Cancer)
  Growth Percent: 8.36%
PC-3 (Prostate Cancer)
  Growth Percent: 10.73%
RPMI-8226 (Leukemia)
  Growth Percent: −14.54%
RXF 393 (Renal Cancer)
  Growth Percent: −14.51%
Range over the cell panel
  Growth Percent, Range: 122.11%
SF-268 (CNS Cancer)
  Growth Percent: 16.59%
SF-295 (CNS Cancer)
  Growth Percent: −22.60%
SF-539 (CNS Cancer)
  Growth Percent: 2.13%
SK-MEL-2 (Melanoma)
  Growth Percent: −33.97%
SK-MEL-28 (Melanoma)
  Growth Percent: 28.00%
SK-MIEL-5 (Melanoma)
  Growth Percent: −36.59%
SK-OV-3 (Ovarian Cancer)
  Growth Percent: −13.54%
SN12C (Renal Cancer)
  Growth Percent: 7.93%
SNB-19 (CNS Cancer)
  Growth Percent: 22.58%
SNB-75 (CNS Cancer)
  Growth Percent: 4.92%
SR (Leukemia)
  Growth Percent: −4.24%
SW-620 (Colon Cancer)
  Growth Percent: 13.14%
T-47D (Breast Cancer)
  Growth Percent: −11.64%
TK-10 (Renal Cancer)
  Growth Percent: 9.29%
U251 (CNS Cancer)
  Growth Percent: 6.17%
UACC-62 (Melanoma)
  Growth Percent: 3.02%
UACC-257 (Melanoma)
  Growth Percent: −7.16%
UO-31 (Renal Cancer)
  Growth Percent: −1.27%
